Results: patent publication US9556139B2, “6-substituted phenoxychroman carboxylic acid derivatives” (Array BioPharma Inc., priority 2008, dated 2017)
pEC50: −log10 of the molar value.

Molecular target: human DP2 (Homo sapiens (Human), UniProt Q9Y5Y4)
Assay: DP-2 Binding Inhibition Assay (3H-PGD2 binding to membranes of K562 cells expressing DP2)
Conditions: read-out: EC50 (Nm) 1% HSA; inhibition of 3H-PGD2 binding, 1% HSA
In short: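 Radioligand filtration binding: ³H-PGD2 displacement from DP2-expressing K562 cell membranes, 60 min, room temperature, pH 7.4, under 0.1% BSA, 1% HSA or 4% HSA.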

human DP2, sequence (Q9Y5Y4 whole entry): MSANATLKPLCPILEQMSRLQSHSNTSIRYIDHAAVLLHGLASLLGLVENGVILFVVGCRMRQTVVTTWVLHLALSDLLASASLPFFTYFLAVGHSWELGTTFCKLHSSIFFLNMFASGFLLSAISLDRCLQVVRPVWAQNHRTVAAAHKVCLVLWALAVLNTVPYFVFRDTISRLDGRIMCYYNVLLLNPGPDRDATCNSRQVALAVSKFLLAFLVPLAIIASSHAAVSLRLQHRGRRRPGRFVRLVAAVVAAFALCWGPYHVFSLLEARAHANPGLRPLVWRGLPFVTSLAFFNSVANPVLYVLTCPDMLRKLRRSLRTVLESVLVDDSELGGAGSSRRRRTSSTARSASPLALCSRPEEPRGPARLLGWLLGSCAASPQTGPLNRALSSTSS

Question: How did the pEC50 turn out when `C[C@@H](CNC(=O)c1ccc(Oc2cc3c(cc2C#N)C(C(=O)O)CCO3)cc1)c1ccccc1` (stereo partly drawn) [Example 130, 6-Cyano-7-(4-((R)-2-phenylpropylcarbamoyl)phenoxy)chroman-4-carboxylic acid] was run?
Answer: Its pEC50 is 7.59.

Question: With `O=C(NCCc1ccc(Cl)cc1)c1ccc(Oc2cc3c(cc2Cl)C(C(=O)O)CCO3)cc1` (stereo not drawn) [Example 10, 6-Chloro-7-(4-(4-chlorophenethylcarbamoyl)phenoxy)chroman-4-carboxylic acid] as the compound, how does the pEC50 read?
Answer: The pEC50 was 7.86.

Question: `C[C@H](CNC(=O)c1ccc(Oc2cc3c(cc2C#N)C(C(=O)O)CCO3)cc1)c1ccccc1` (stereo partly drawn) [Example 131, 6-Cyano-7-(4-((S)-2-phenylpropylcarbamoyl)phenoxy)chroman-4-carboxylic acid] was tested. Which pEC50 did it give?
Answer: The pEC50 was 7.23.

Same assay, conditions: read-out: EC50 (nM) 4% HSA; inhibition of 3H-PGD2 binding, 4% HSA

Question: How did the EC50 turn out when `Cc1ccc(CCNC(=O)c2ccc(Oc3cc4c(cc3Cl)C(C(=O)O)CCO4)cc2)c(C)c1` (stereo not drawn) [Example 21, Sodium 6-chloro-7-(4-(2,4-dimethylphenethylcarbamoyl)phenoxy)chroman-4-carboxylate] was run?
Answer: The EC50 was 169 nM.

Question: For `O=C(NCC(O)c1ccccc1Cl)c1ccc(Oc2cc3c(cc2Cl)C(C(=O)O)CCO3)cc1` (stereo not drawn) [Example 185, Sodium 6-chloro-7-(4-(2-(2-chlorophenyl)-2-hydroxyethylcarbamoyl)phenoxy)chroman-4-carboxylate], which EC50 is on record?
Answer: Its EC50 is 857 nM.

Question: Which EC50 does the source give for `O=C(NCCc1cccn1-c1ccc(C(F)(F)F)cc1)c1ccc(Oc2cc3c(cc2Cl)C(C(=O)O)CCO3)cc1` (stereo not drawn) [Example 194, sodium 6-chloro-7-(4-(2-(1-(4-(trifluoromethyl)phenyl)-1H-pyrrol-2-yl)ethylcarbamoyl)phenoxy)chroman-4-carboxylate] here?
Answer: The EC50 was 3010 nM.

Question: For `O=C(Nc1ccc(F)c(-c2ccc(Cl)cc2)c1)c1ccc(Oc2cc3c(cc2Cl)C(C(=O)O)CCO3)cc1` (stereo not drawn) [Example 71, 6-Chloro-7-(4-(4′-chloro-6-fluorobiphenyl-3-ylcarbamoyl)phenoxy)chroman-4-carboxylic acid], which EC50 is on record?
Answer: Its EC50 is 119 nM.

Question: With `O=C(NC1CCN(c2cccc(Cl)c2)C1)c1ccc(Oc2cc3c(cc2Cl)C(C(=O)O)CCO3)cc1` (stereo not drawn) [Example 119, Sodium 6-chloro-7-(4-(1-(3-chlorophenyl)pyrrolidin-3-ylcarbamoyl)phenoxy)chroman-4-carboxylate] as the compound, how does the EC50 read?
Answer: The EC50 was 206 nM.

Question: With `O=C(NCCc1cccc(F)c1)c1ccc(Oc2cc3c(cc2Cl)C(C(=O)O)CCO3)cc1` (stereo not drawn) [Example 145, Sodium 6-chloro-7-(4-(3-fluorophenethylcarbamoyl)phenoxy)chroman-4-carboxylate] as the compound, how does the EC50 read?
Answer: The EC50 was 655 nM.

Question: `N#Cc1cc2c(cc1Oc1ccc(C(=O)Nc3ccc(-c4ccc(Cl)cc4)cc3)cc1)OCCC2C(=O)O` (stereo not drawn) [Example 69, 7-(4-(4′-Chlorobiphenyl-4-ylcarbamoyl)phenoxy)-6-cyanochroman-4-carboxylic acid] was tested. Which EC50 did it give?
Answer: Its EC50 is 240 nM.

Question: Which EC50 does the source give for `CC(C)(C)CCNC(=O)c1ccc(Oc2cc3c(cc2Cl)C(C(=O)O)CCO3)cc1` (stereo not drawn) [Example 179, Sodium 6-chloro-7-(4-(3,3-dimethylbutylcarbamoyl)phenoxy)chroman-4-carboxylate] here?
Answer: The EC50 was 1110 nM.

Question: How did the EC50 turn out when `O=C(NCCc1ccc(Cl)cc1)c1ccc(Oc2cc3c(cc2Cl)C(C(=O)O)CCO3)cc1` (stereo not drawn) [Example 10, 6-Chloro-7-(4-(4-chlorophenethylcarbamoyl)phenoxy)chroman-4-carboxylic acid] was run?
Answer: Its EC50 is 225 nM.

Question: For `O=C(NCCc1ccc(F)cc1F)c1ccc(Oc2cc3c(cc2Cl)C(C(=O)O)CCO3)cc1` (stereo not drawn) [Example 81, Sodium 6-chloro-7-(4-(2,4-difluorophenethylcarbamoyl)phenoxy)chroman-4-carboxylate], which EC50 is on record?
Answer: The EC50 was 191 nM.

Question: `O=C(NCCc1ccc(SC(F)(F)F)cc1)c1ccc(Oc2cc3c(cc2Cl)C(C(=O)O)CCO3)cc1` (stereo not drawn) [Example 147, Sodium 6-chloro-7-(4-(4-(trifluoromethylthio)phenethylcarbamoyl)phenoxy)chroman-4-carboxylate] was tested. Which EC50 did it give?
Answer: The EC50 was 240 nM.

Question: With `CC(C)Oc1cccc(NC(=O)c2ccc(Oc3cc4c(cc3C#N)C(C(=O)O)CCO4)cc2)c1` (stereo not drawn) [Example 135, 6-Cyano-7-(4-(3-isopropoxyphenylcarbamoyl)phenoxy)chroman-4-carboxylic acid] as the compound, how does the EC50 read?
Answer: Its EC50 is 205 nM.

Question: Which EC50 does the source give for `CC(C)(C)C1CCC(NC(=O)c2ccc(Oc3cc4c(cc3Cl)C(C(=O)O)CCO4)cc2)CC1` (stereo not drawn) [Example 156, 7-(4-(4-tert-butylcyclohexylcarbamoyl)phenoxy)-6-chlorochroman-4-carboxylic acid] here?
Answer: The EC50 was 509 nM.

Question: With `Cc1ccc(C2CCCC(NC(=O)c3ccc(Oc4cc5c(cc4Cl)C(C(=O)O)CCO5)cc3)C2)cc1` (stereo not drawn) [Example 160, 6-Chloro-7-(4-(3-(4-methylphenyl)cyclohexylcarbamoyl)phenoxy)chroman-4-carboxylic acid] as the compound, how does the EC50 read?
Answer: Its EC50 is 350 nM.

Question: How did the EC50 turn out when `Cc1cccc(CCNC(=O)c2ccc(Oc3cc4c(cc3Cl)C(C(=O)O)CCO4)cc2)c1` (stereo not drawn) [Example 146, Sodium 6-chloro-7-(4-(3-methylphenethylcarbamoyl)phenoxy)chroman-4-carboxylate] was run?
Answer: The EC50 was 608 nM.
